From patent publication US20230028880A1, “CD38-BINDING AGENTS AND USES THEREOF” (Biohaven Therapeutics Ltd., priority 2019, published 2023)

How the values were obtained:
[1] = test system: SUDHL-4 cells; assay: CIML NK cell SUDHL-4 cell ADCC assay; format: cell-based
Experimental: CIML NK cell SUDHL-4 cell ADCC assay: SUDHL-4 cells were labelled with CFSE and re-suspended in XVIVO15 media containing 20% Human serum. Cells were aliquoted at 10,000 cells/well, 18 ul/well of 96 well V-bottom plates. NK cells (in PBS 5% HSA) were added at a 9:1 ratio (90,000 NK cell per well) in an equal volume (18 ul per well). Co-cultures were incubated overnight at 37° C. in a 5% CO2 atmosphere. Next day, cells were washed, and stained with the following reagents: Near Infra-Red Fixable viability dye (Thermo Fisher), CD3 FITC (Biolegend) and CD56 PE (Biolegend). Percentages of Dead SUDHL-4 cells were calculated by gating on CFSE+ cells that are also positive for Near Infrared Live Dead dye.
Baseline activity was assessed by using NK cells that have not been stimulated with cytokine cocktail (non-CIML NK cells). FIG. 6 represents frequencies of dead SUDHL-4 cells in NK-SUDHL-4 cell co-cultures after 18 hours of incubation.

[2] = test system: Daudi cells; assay: Intraperitoneal lavage model: CFSE-labelled Daudi cells in SCID mice; format: in vivo; conditions: I-17 1, 10, 30 mg/kg + IVIG 10 mg/mouse sub-Q, 16-18 hours (FIG. 9)
Experimental: On day 0 animals were weighed and randomized. Mice were assigned to different groups and treated as described below. CFSE labelled Daudi cells were prepared as follows:
• Reagents used: PBS (Sterile) • Quenching Buffer PBS+10% FBS • RPMI (no additives) no P/S; no FBS • Invitrogen—CellTrace CFSE Cell Proliferation Kit, for Flow Cytometry (Cat#C34570) • Warm the sterile PBS and all other media to 37 degree Celsius before use for all of the following procedures listed below. […]
After 16-18 hours the mice were sacrificed via CO2 asphyxiation and had their peritoneal cavity flushed with 5 mls of PBS with 1% BSA. Samples were processed and analyzed using IP Lavage Processing is described in 00765. Samples were evaluated for tumor cell counts. […]

CCCCC[C@@H]1NC(=O)[C@H](CCCNC(=N)N)NC(=O)[C@H](C)NC(=O)CSC[C@@H](C(=O)NCCOCCOCCOCCOCCOCCOCCn2nnc3c2CCC2C(CC3)C2COC(=O)N2CCC(C(=O)NCC(=O)N[C@H](CCC(=O)N[C@H](CCC(=O)N[C@H](CCC(=O)O)C(=O)N[C@H](CCC(=O)N[C@H](CCC(=O)NCC(=O)NCC(=O)N[C@@H](CC(=O)O)C(=O)N[C@H]3CSSC[C@@H](C(=O)N[C@H](C(=O)O)[C@@H](C)O)NC(=O)[C@H](Cc4c[nH]c5ccccc45)NC(=O)[C@H](C(C)C)NC(=O)[C@H](CC(C)C)NC(=O)[C@H](CCC(=O)O)NC(=O)CNC(=O)[C@H](CC(C)C)NC(=O)[C@H](Cc4c[nH]cn4)NC(=O)[C@H](Cc4c[nH]c5ccccc45)NC(=O)[C@H](C)NC3=O)C(=O)O)C(=O)O)C(=O)O)C(=O)O)CC2)NC(=O)[C@H](CC(=O)O)NC(=O)[C@H](CCCCC)NC(=O)[C@H](Cc2ccc(-c3ccccc3)cc2)NC(=O)[C@H](CC(C)C)NC(=O)[C@H](C(C)C)NC(=O)CNC(=O)[C@H](CC(=O)O)NC(=O)[C@H](Cc2c[nH]cn2)NC(=O)[C@H](Cc2ccc(O)cc2)NC1=O (stereo partly drawn) [I-17]
increase in killing over background (DMSO-treated control) ([1]; CIML NK cells in combination with I-17, SUDHL-4 cells, 18 hours): 66%
killing of SUDHL-4 cells in NK-SUDHL-4 co-cultures ([1]; FIG. 6): can effectively kill cancer cells
number of CD38 expressing Daudi cells in intraperitoneal cavity [2]: can effectively reduce the number of target cells
